Legend:
[1] = system: ELIC aliphatic-to-aromatic mutants at the M4-M1/M3 interface; settings: Fig. S4
[2] = system: GLIC aromatic-to-Ala mutants at the M4-M1/M3 interface; settings: Fig. S4
[3] = system: ELIC with the entire aromatic network of GLIC; assay type: cell-based; settings: read-out: EC50, concentration of cysteamine to elicit half maximal channel gating, oocytes
ELIC L308W = ELIC L308W (Dickeya chrysanthemi, UniProt P0C7B7, L308W); test: Two-electrode voltage clamp dose response to cysteamine, ELIC L308W mutant; assay type: cell-based
wild type ELIC = wild type ELIC (Dickeya chrysanthemi, UniProt P0C7B7); assay type: cell-based; settings: read-out: EC50, concentration of cysteamine to elicit half maximal channel gating, oocytes, whole cell currents
ELIC I319F/V260Y = ELIC I319F/V260Y (Dickeya chrysanthemi, UniProt P0C7B7, I319F/V260Y); assay type: cell-based; settings: read-out: EC50, concentration of cysteamine to elicit half maximal channel gating; ELIC I319F/V260Y double mutant, oocytes
ELIC G318F/V260Y = ELIC G318F/V260Y (Dickeya chrysanthemi, UniProt P0C7B7, G318F/V260Y); assay type: cell-based; settings: read-out: EC50, concentration of cysteamine to elicit half maximal channel gating; ELIC G318F/V260Y double mutant, oocytes
[4] = system: human muscle-type nAChR C418W; assay type: cell-based; settings: C418W relative to wild type

CC(C)c1cccc(C(C)C)c1O [propofol, 2,6 diisopropylphenol]
effect of aliphatic-to-aromatic substitutions on propofol inhibition [1]: None of the aromatic-to-Ala substitutions at the M4-M1/M3 interface of GLIC or the aliphatic-to-aromatic substitutions at the same interface in ELIC, however, had a major effect on propofol inhibition | effect of aromatic-to-Ala substitutions on propofol inhibition [2]: None of the aromatic-to-Ala substitutions at the M4-M1/M3 interface of GLIC or the aliphatic-to-aromatic substitutions at the same interface in ELIC, however, had a major effect on propofol inhibition

NCCS [cysteamine]
EC50 [3]: 150 ± 40 µM | magnitude of the L308W gain of function relative to the wild type ELIC (ELIC L308W; L308W relative to wild type ELIC): ~5 fold | EC50 (ELIC L308W; read-out: EC50, concentration of cysteamine to elicit half maximal channel gating, ELIC L308W, oocytes): 290 ± 50 µM | EC50 (wild type ELIC): 940 ± 160 µM | EC50 (ELIC I319F/V260Y): 130 µM | EC50 (ELIC G318F/V260Y): 130 µM

CC(=O)OCC[N+](C)(C)C [acetylcholine]
potentiation of nAChR channel function by C418W (EC50 wild type vs C418W) [4]: roughly 25 fold

Source: publication PMC4824752 (Structure (London, England : 1993), 2015)
